The source of these data is US20180282662A1, “Process” (GIVAUDAN SA, priority 2014, published 2018).

The nature of data set [1]: Susceptibility to enzymatic degradation to the benzoic acid derivative. Type of data set: in vitro ADME.
A further data set has as its system primates. The following applies: cited from earlier work.
The conditions of data set [2]: rats; cited from earlier work.
For data set [3] the following is noted: dogs; cited from earlier work.
For data set [4], the system named is reproductive organs of male rats. Conditions: rat, in vivo; cited from earlier work.
The subject of data set [5] is reproductive organs of dogs. Conditions: dog, in vivo; cited from earlier work.
For the next data set, the system named is mice. The following applies: mouse, in vivo; cited from earlier work.
In another data set the test system is guinea-pigs. The following applies: guinea pig, in vivo; cited from earlier work.
Another data set relates to glucose synthesis. Conditions: in vitro; cited from earlier work.
The test system of another data set is fatty acid synthesis. The following applies: in vitro; cited from earlier work.
The next data set has as its system male rats. The following applies: cited from earlier work.

Like-named read-outs stand apart in the source and are kept apart here.

For `Cc1cc(CC(C)C)ccc1CCC=O` [(I), 3-(4-Isobutyl-2-methylphenyl)propanal], the “enzymatic degradation to its benzoic acid derivative” value in [1] is given as “not susceptible”.

Regarding `CC(C=O)Cc1ccc(C(C)(C)C)cc1` (centres unmarked) [Lilial, 3-(4-tert-butylphenyl)-2-methylpropanal], the toxic effects entry in the data set on primates, in the data set with mice and in the data set on guinea-pigs was “No effects” in each case. Besides, the “enzymatic degradation to tert-butyl benzoic acid (t-BBA)” value in [2] and in data set [3] was “enzymatically degraded” in each case. Further, the “toxic effects on the reproductive organs” value in [4] and in [5] was “toxic effects” each time.

On to `CC(C)(C)c1ccc(C(=O)O)cc1` [tert-butyl benzoic acid], for which the “inhibition of glucose synthesis” value in the data set on glucose synthesis was “inhibit”. The “inhibition of fatty acid synthesis” value in the data set on fatty acid synthesis is “inhibit”. Besides, the testicular effects result with male rats is “testicular effects”.
